Data on 5 compounds can be found in ChEMBL document CHEMBL4602676, “Discovery and Development of 3-(6-Chloropyridine-3-yloxymethyl)-2-azabicyclo[3.1.0]hexane Hydrochloride (SUVN-911): A Novel, Potent, Selective, and Orally Active Neuronal Nicotinic Acetylcholine α4β2 Receptor Antagonist for the Treatment of Depression” (J Med Chem, 2020).

The target in data set [1] is Neuronal acetylcholine receptor; alpha4/beta2 (Homo sapiens, UniProt P17787+P43681). As to the kind of experiment: Displacement of [3H]cytisine from human alpha4beta2 nAChR expressed in CHOK1 cell membrane by microbeta scintillation counting method. The class given is cell membranes, CHO-K1.
Sequence of Neuronal acetylcholine receptor; alpha4/beta2 (P17787 whole entry): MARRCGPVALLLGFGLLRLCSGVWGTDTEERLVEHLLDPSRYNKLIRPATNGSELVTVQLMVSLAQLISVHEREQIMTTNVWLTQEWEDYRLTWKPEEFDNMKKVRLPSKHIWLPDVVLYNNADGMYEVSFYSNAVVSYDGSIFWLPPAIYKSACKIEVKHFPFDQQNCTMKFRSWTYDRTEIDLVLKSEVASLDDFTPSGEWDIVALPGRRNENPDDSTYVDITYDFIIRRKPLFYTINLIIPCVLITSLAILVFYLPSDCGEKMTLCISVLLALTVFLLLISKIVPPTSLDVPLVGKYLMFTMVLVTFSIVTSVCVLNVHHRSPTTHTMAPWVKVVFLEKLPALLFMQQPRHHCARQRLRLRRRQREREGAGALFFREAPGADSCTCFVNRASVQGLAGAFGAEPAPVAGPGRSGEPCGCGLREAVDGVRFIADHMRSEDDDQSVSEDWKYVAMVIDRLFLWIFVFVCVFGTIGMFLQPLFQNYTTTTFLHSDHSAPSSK
Sequence of Neuronal acetylcholine receptor; alpha4/beta2 (P43681 whole entry): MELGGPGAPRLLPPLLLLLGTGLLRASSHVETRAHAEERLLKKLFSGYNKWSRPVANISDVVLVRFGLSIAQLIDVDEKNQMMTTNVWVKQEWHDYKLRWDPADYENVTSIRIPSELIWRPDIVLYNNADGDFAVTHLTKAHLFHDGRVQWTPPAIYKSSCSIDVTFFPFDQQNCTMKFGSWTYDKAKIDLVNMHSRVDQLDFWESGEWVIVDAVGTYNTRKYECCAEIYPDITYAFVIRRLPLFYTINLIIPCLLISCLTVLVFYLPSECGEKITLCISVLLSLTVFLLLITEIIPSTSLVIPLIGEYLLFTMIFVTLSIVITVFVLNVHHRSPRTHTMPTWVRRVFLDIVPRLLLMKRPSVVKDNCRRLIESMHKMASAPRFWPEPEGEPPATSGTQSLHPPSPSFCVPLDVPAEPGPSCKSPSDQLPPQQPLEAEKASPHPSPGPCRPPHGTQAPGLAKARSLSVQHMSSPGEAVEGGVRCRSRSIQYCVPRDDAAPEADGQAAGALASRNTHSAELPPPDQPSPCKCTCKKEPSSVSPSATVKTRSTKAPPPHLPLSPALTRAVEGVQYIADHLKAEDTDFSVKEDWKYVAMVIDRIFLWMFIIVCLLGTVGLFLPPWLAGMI
Data set [2] concerns the target Neuronal acetylcholine receptor; alpha3/beta4 (Homo sapiens, UniProt P30926+P32297). Nature of the data set: Displacement of [3H]epibatidine from human alpha3beta4 nAChR expressed in IMR32 cell membrane by microbeta scintillation counting method. The format is cell membranes, IMR-32.
Data set [3] can be described thus: Metabolic stability in human liver microsomes assessed as compound metabolism incubated for 30 mins in presence of NADPH by LC-MS/MS analysis. The following applies: read-out: Drug metabolism. The format is ADME, Microsome.
Data set [4] in a line: Metabolic stability in rat liver microsomes assessed as compound metabolism incubated for 30 mins in presence of NADPH by LC-MS/MS analysis. The class given is ADME, Microsome. The following applies: read-out: Drug metabolism.
Data set [5] can be described thus: Oral bioavailability in Wistar rat at 10 ml/kg measured upto 24 hrs by LC-MS/MS analysis. The class given is ADME, organism-based. The conditions noted are these: in vivo.
Data set [6] is described as follows: Cmax in Wistar rat at 10 ml/kg, po or 2 ml/kg, iv measured upto 24 hrs by LC-MS/MS analysis. The class given is ADME, organism-based. The following applies: in vivo.
Data set [7] in a line: AUC in Wistar rat at 10 ml/kg, po or 2 ml/kg, iv measured upto 24 hrs by LC-MS/MS analysis. The following applies: in vivo. The class given is ADME, organism-based.
The nature of data set [8]: Half life in Wistar rat at 10 ml/kg, po or 2 ml/kg, iv measured upto 24 hrs by LC-MS/MS analysis. The class given is ADME, organism-based. The conditions noted are these: in vivo.
Data set [9] is described as follows: Ratio of drug level in brain to plasma in Wistar rat at 10 ml/kg, po or 2 ml/kg, iv measured upto 24 hrs by LC-MS/MS analysis. The class given is ADME, organism-based. The conditions noted are these: brain and plasma, read-out: BPR.
Another data set deals with Cytochrome P450 2D6 (Homo sapiens, UniProt P10635). As to the kind of experiment: Inhibition of CYP2D6 in human liver microsomes using dextromethorphan as substrate incubated for 12 min in presence of NADPH by LC-MS/MS analysis. The class given is ADME.
Sequence of Cytochrome P450 2D6 (P10635 whole entry): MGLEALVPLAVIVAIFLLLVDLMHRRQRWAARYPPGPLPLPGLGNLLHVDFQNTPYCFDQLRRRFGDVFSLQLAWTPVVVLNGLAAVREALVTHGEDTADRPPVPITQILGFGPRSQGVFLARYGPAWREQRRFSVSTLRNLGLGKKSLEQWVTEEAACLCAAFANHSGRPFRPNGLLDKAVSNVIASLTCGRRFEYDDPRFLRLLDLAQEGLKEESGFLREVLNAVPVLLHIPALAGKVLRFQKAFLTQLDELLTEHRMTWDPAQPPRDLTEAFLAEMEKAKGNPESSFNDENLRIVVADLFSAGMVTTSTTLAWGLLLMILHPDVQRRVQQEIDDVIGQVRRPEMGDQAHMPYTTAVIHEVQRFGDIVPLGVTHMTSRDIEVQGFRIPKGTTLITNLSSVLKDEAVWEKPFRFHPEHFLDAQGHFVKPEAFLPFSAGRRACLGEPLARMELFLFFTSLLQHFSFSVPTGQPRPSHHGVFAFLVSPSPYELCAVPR
The next data set addresses Cytochrome P450 3A4 (Homo sapiens, UniProt P08684). Nature of the data set: Inhibition of CYP3A4 in human liver microsomes using midazolam as substrate incubated for 2 min in presence of NADPH by LC-MS/MS analysis. The class given is ADME.
The subject of data set [10] is Rattus norvegicus. Nature of the data set: Antidepressant activity in Wistar rat assessed as reduction in immobility at 1 mg/kg, po administrated for 3 days and measured for 5 mins by forced swim test relative to control. The format is functional. Also on record: scale not given: the % may be the effect or the level left.
For data set [11], the system named is Rattus norvegicus. Nature of the data set: Antidepressant activity in Wistar rat assessed as reduction in immobility at 3 mg/kg, po administrated for 3 days and measured for 5 mins by forced swim test relative to control. Also noted: scale not given: the % may be the effect or the level left. The format is functional.
The subject of data set [12] is Rattus norvegicus. As to the kind of experiment: Antidepressant activity in Wistar rat assessed as reduction in immobility at 10 mg/kg, po administrated for 3 days and measured for 5 mins by forced swim test relative to control. The format is functional. Also noted: scale not given: the % may be the effect or the level left.
Data set [13] concerns Rattus norvegicus. As to the kind of experiment: Antidepressant activity in Wistar rat assessed as immobility time at 3.0 mg/kg, po measured for 5 mins by forced swim test (reference value: 241.9 to 281.6 sec). The format is functional.
In data set [14] the test system is Rattus norvegicus. As to the kind of experiment: Antidepressant activity in Wistar rat assessed as immobility time at 10.0 mg/kg, po measured for 5 mins by forced swim test (reference value: 241.9 to 281.6 sec). The format is functional.
The subject of data set [15] is Rattus norvegicus. Nature of the data set: Antidepressant activity in Wistar rat assessed as immobility time at 45 mg/kg, ip measured for 5 mins by forced swim test (reference value: 271.9 +/- 7.2 sec). The format is functional.

Sequence of Neuronal acetylcholine receptor; alpha3/beta4 (P30926 whole entry): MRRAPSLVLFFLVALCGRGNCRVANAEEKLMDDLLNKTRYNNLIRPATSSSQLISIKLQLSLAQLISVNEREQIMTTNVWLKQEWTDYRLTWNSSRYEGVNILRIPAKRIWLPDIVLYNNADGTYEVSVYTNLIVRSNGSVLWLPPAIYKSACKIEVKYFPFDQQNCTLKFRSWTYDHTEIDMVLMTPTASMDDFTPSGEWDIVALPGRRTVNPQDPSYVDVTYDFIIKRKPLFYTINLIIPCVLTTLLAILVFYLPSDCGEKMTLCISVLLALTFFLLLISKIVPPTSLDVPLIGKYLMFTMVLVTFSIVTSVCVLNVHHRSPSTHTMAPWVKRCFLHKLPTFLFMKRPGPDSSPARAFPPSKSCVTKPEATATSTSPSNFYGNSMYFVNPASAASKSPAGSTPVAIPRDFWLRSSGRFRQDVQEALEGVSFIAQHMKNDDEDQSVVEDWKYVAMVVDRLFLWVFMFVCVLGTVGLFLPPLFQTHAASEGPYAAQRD
Sequence of Neuronal acetylcholine receptor; alpha3/beta4 (P32297 whole entry): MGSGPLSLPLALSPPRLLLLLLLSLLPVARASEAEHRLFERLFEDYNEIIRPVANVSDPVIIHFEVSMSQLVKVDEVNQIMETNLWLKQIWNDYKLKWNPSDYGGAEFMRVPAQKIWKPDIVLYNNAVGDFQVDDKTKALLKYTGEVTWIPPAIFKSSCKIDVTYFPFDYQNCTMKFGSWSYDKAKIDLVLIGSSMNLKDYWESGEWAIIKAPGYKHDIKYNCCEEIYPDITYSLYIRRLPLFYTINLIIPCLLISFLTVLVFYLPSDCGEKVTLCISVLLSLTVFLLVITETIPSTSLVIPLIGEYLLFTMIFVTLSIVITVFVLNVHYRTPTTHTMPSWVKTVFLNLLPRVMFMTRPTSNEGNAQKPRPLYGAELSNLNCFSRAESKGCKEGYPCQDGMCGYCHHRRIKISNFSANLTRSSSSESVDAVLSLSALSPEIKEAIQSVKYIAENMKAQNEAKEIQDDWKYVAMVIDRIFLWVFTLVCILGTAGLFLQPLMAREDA
Sequence of Cytochrome P450 3A4 (P08684 whole entry): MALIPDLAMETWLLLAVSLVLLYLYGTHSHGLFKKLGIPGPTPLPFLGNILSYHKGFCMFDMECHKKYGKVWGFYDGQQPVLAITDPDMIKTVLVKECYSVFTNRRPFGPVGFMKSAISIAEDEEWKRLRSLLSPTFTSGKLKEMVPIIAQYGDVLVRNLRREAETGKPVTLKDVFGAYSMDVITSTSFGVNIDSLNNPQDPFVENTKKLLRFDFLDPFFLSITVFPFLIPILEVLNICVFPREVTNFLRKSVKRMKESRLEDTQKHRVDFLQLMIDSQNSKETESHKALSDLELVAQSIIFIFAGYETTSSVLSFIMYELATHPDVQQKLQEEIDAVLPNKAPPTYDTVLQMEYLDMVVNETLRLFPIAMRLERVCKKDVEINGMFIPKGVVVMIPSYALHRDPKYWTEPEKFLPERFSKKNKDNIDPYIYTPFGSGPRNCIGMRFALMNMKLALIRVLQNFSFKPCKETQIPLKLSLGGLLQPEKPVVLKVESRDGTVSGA

Consider `Cl.Clc1ncccc1OC[C@@H]1C[C@H]2C[C@H]2N1`, for which the values for the Ki in data set [1] and in [2] were 0.0175 µM and more than 10 µM, respectively. The figures for the metabolised at 0.5 h in [3] and in [4] were 29.5% and 14.9%, respectively. Besides, the bioavailability in data set [5] came to 54%. The compound also registered a Cmax in [6] of 921 ng/mL. For the same compound, the AUC at 24 h in [7] turned out to be 2160 ng·h/mL. The half-life in [8] is 2.15 h. Further, the Kp at 24 h in data set [9] worked out at 3.6. For the same compound, the 50% inhibitory concentration (IC50) is more than 42 µM on Cytochrome P450 2D6 and more than 45 µM on Cytochrome P450 3A4. Also, the Activity was 10% in the data set with Rattus norvegicus [10], 24.7% in the data set on Rattus norvegicus [11] and 15.8% with Rattus norvegicus [12].

Regarding `Cl.Clc1ccc(OC[C@@H]2CC[C@H]3C[C@H]3N2)cn1`, the Ki in [1] was 0.0205 µM; in [2] it was more than 10 µM. Besides, the values for the metabolised at 0.5 h in [3] and in data set [4] were 98.9% and 72.8%, respectively. Further, the bioavailability in data set [5] was 48%. The compound also registered a Cmax in [6] of 3340 ng/mL. The AUC at 24 h in [7] worked out at 4480 ng·h/mL. Moreover, the half-life in data set [8] is 0.68 h. Besides, in data set [9], the Kp at 24 h turned out to be 0.16. Moreover, the values for the half-inhibitory concentration (IC50) on Cytochrome P450 2D6 and at Cytochrome P450 3A4 were 79 µM and more than 45 µM, respectively. For the same compound, the Time in the data set on Rattus norvegicus [13] is recorded as 238.6 s; with Rattus norvegicus [14], 264.9 s.

As for `CN(C)CCCN1c2ccccc2CCc2ccccc21` [IMIPRAMINE], the Time in the data set on Rattus norvegicus [15] came to 176.5 s.

Turning to `Cl.Clc1ccc(OC[C@H]2C[C@@H]3C[C@@H]3N2)cn1`, the values for the inhibition constant (Ki) in data set [1] and in data set [2] were 0.039 µM and 6.01 µM, respectively. Besides, the metabolised at 0.5 h in [3] amounted to 42.2%; in [4] it was 26.2%. For the same compound, the bioavailability in [5] was determined as 35%. In [6], this compound yielded a peak concentration (Cmax) of 1190 ng/mL. Besides, the AUC at 24 h in data set [7] came to 1770 ng·h/mL. The compound further had a half-life in data set [8] of 1.6 h. Moreover, the Kp at 24 h in data set [9] was 3.83. Further, the IC50 is 17.1 µM on Cytochrome P450 2D6 and more than 45 µM on Cytochrome P450 3A4. For the same compound, the Time with Rattus norvegicus [13] worked out at 256.8 s; with Rattus norvegicus [14], 279 s.

Take `Cl.Clc1cncc(OC[C@@H]2C[C@H]3C[C@H]3N2)c1`: the Ki in [1] is 0.00019 µM; in data set [2] it was more than 10 µM. The metabolised at 0.5 h in data set [3] was determined as 40.7%; in [4], 40.4%. This compound also displayed a bioavailability in [5] of 50%. Further, in data set [6], the concentration peaked (Cmax) at 949 ng/mL. In data set [7], this compound returned an AUC at 24 h of 1190 ng·h/mL. The half-life in [8] was 1.07 h. Also, the Kp at 24 h in [9] was 3.79. Further, the IC50 on Cytochrome P450 2D6 and on Cytochrome P450 3A4 was more than 45 µM each time. The results for the Time in the data set with Rattus norvegicus [13] and in the data set with Rattus norvegicus [14] were 249.9 s and 241.7 s, respectively.
